Laboratory results from patent US20070128217A1 (priority 2003, published 2007).

Tests used:
[1] = test system: antibodies in sera from SARS patients (sera 1a, 1b, 2, 6, 37, 62, London, SARS-yellow, SARS-green); format: binding, human; parameters: Binding of serum 6 to linear peptides of protein X1 of SARS-CoV Urbani / Binding of serum 37 to linear peptides of protein X1 of SARS-CoV Urbani / Binding of serum 6 to looped/cyclic peptide (PEPSCAN-ELISA) / Binding of serum 37 to looped/cyclic peptide (PEPSCAN-ELISA) / Binding of serum 37 to looped/cyclic peptides of protein X1 of SARS-CoV Urbani / Binding of serum 6 to linear peptides of protein X2 / Binding of serum 37 to linear peptides of protein X2 / Binding of serum 37 to looped/cyclic peptides of protein X2 of SARS-CoV Urbani / Binding of serum 6 to linear peptides of protein M of SARS-CoV Urbani / Binding of serum 37 to linear peptides of protein M of SARS-CoV Urbani / Binding of serum 6 to looped/cyclic peptides of protein M of SARS-CoV Urbani / Binding of serum 37 to looped/cyclic peptides of protein M of SARS-CoV Urbani / Binding of serum 6 to linear peptides of protein X3 of SARS-CoV Urbani / Binding of serum 37 to linear peptides of protein X3 of SARS-CoV Urbani / Binding of serum 37 to looped/cyclic peptides of protein X3 of SARS-CoV Urbani / Binding of serum 6 to linear peptides of protein X4 of SARS-CoV Urbani / Binding of serum 37 to linear peptides of protein X4 of SARS-CoV Urbani / Binding of serum 37 to looped/cyclic peptides of protein X4 of SARS-CoV Urbani / Binding of serum 6 to linear peptides of protein X5 of SARS-CoV Urbani / Binding of serum 37 to linear peptides of protein X5 of SARS-CoV Urbani / Binding of serum 37 to looped/cyclic peptides of protein X5 of SARS-CoV Urbani / Binding of serum 6 to linear peptides of protein N of SARS-CoV Urbani / Binding of serum 37 to linear peptides of protein N of SARS-CoV Urbani / Binding of serum 6 to linear peptide (PEPSCAN-ELISA) / Binding of serum 1a to looped/cyclic peptides of protein N of SARS-CoV Urbani / Binding of serum 1b to looped/cyclic peptides of protein N of SARS-CoV Urbani / Binding of serum 2 to looped/cyclic peptides of protein N of SARS-CoV Urbani / Binding of serum 6 to looped/cyclic peptides of protein N of SARS-CoV Urbani / Binding of serum 37 to looped/cyclic peptides of protein N of SARS-CoV Urbani / Binding of serum 62 to looped/cyclic peptides of protein N of SARS-CoV Urbani / Binding of serum London to looped/cyclic peptides of protein N of SARS-CoV Urbani / Binding of serum SARS-green to looped/cyclic peptides of protein N of SARS-CoV Urbani: unit not given here
[2] = test system: control sera (pooled serum of ten healthy LUMC hospital workers; commercial negative donor pooled serum from the Dutch bloodbank); format: binding, human; parameters: Binding of Control serum LUMC to linear peptides / Binding of Control serum Blood-bank to linear peptides / Binding of Control serum LUMC to looped peptides / Binding of Control Serum Blood-Bank to Looped peptides / Binding of Control serum LUMC to linear peptides of the protein M of SARS-CoV Urbani / Binding of Control serum Blood-bank to linear peptides of the protein M of SARS-CoV Urbani / Binding of Control serum LUMC to looped peptides of the protein M of SARS-CoV Urbani / Binding of Control Serum Blood-Bank to Looped peptides of the protein M of SARS-CoV Urbani: unit not given here
[3] = test system: rabbit serum obtained by immunizing a rabbit with the SARS-CoV strain Frankfurt 1; format: binding; parameters: Binding of a rabbit serum to linear peptides / Binding of a rabbit serum to looped peptides / Rabbit serum linear peptides / Rabbit serum looped peptides / Binding of a rabbit serum to linear peptides of protein N of SARS-CoV Urbani (Rabbit serum linear peptides) / Binding of a rabbit serum to looped/cyclic peptides of protein N of SARS-CoV Urbani (Rabbit serum looped peptides): unit not given here

| Sequence | Binding of Control Serum Blood-Bank to Looped peptides [2] | Binding of Control serum Blood-bank to linear peptides [2] | Binding of Control serum LUMC to linear peptides [2] | Binding of Control serum LUMC to looped peptides [2] | Binding of a rabbit serum to linear peptides [3] | Binding of a rabbit serum to looped peptides [3] | Binding of serum 1a to linear peptides of protein X1 of SARS-CoV Urbani [1] | Binding of serum 1a to looped/cyclic peptide (PEPSCAN-ELISA) [1] | Binding of serum 1b to linear peptides of protein X1 of SARS-CoV Urbani [1] | Binding of serum 1b to looped/cyclic peptide (PEPSCAN-ELISA) [1] | Binding of serum 2 to linear peptides of protein X1 of SARS-CoV Urbani [1] | Binding of serum 2 to looped/cyclic peptide (PEPSCAN-ELISA) [1] | Binding of serum 6 to linear peptides of protein X1 of SARS-CoV Urbani [1] | Binding of serum 6 to looped/cyclic peptide (PEPSCAN-ELISA) [1] | Binding of serum 37 to linear peptides of protein X1 of SARS-CoV Urbani [1] | Binding of serum 37 to looped/cyclic peptide (PEPSCAN-ELISA) [1] | Binding of serum 62 to linear peptides of protein X1 of SARS-CoV Urbani [1] | Binding of serum 62 to looped/cyclic peptide (PEPSCAN-ELISA) [1] | Binding of serum London to linear peptides of protein X1 of SARS-CoV Urbani [1] | Binding of serum London to looped/cyclic peptide (PEPSCAN-ELISA) [1] | other results |
| --- | --- | --- | --- | --- | --- | --- | --- | --- | --- | --- | --- | --- | --- | --- | --- | --- | --- | --- | --- | --- | --- |
| LLKVTAFQHQNSKKT | 0.4 | 0.3 | 0.3 | 0.5 | 0.6 | 0.3 | – | – | – | – | – | – | – | – | – | – | – | – | – | – | Binding of serum 1a to linear peptides of protein X2 [1]: 0.2; Binding of serum 1a to looped/cyclic peptides of protein X2 of SARS-CoV Urbani [1]: 0.4; Binding of serum 1b to linear peptides of protein X2 [1]: 0.0; Binding of serum 1b to looped/cyclic peptides of protein X2 of SARS-CoV Urbani [1]: 0.3; Binding of serum 2 to linear peptides of protein X2 [1]: 0.1; Binding of serum 2 to looped/cyclic peptides of protein X2 of SARS-CoV Urbani [1]: 0.2; Binding of serum 6 to linear peptides of protein X2 [1]: 0.2; Binding of serum 6 to looped/cyclic peptides of protein X2 of SARS-CoV Urbani [1]: 0.2; Binding of serum 37 to linear peptides of protein X2 [1]: 0.5; Binding of serum 37 to looped/cyclic peptides of protein X2 of SARS-CoV Urbani [1]: 0.3; Binding of serum 62 to linear peptides of protein X2 [1]: 0.1; Binding of serum 62 to looped/cyclic peptides of protein X2 of SARS-CoV Urbani [1]: 0.4; Binding of serum London to linear peptides of protein X2 [1]: 0.2; Binding of serum London to looped/cyclic peptides of protein X2 of SARS-CoV Urbani [1]: 0.2; Binding of serum SARS-green to linear peptides of protein X2 [1]: 0.1; Binding of serum SARS-green to looped/cyclic peptides of protein X2 of SARS-CoV Urbani [1]: 0.3; Binding of serum SARS-yellow to linear peptides of protein X2 [1]: 0.1; Binding of serum SARS-yellow to looped/cyclic peptides of protein X2 of SARS-CoV Urbani [1]: 0.3 |
| LLLFVTIYSHLLLVA | 0.5 | 0.4 | 0.4 | 0.5 | 0.1 | 0.5 | 0.7 | 0.5 | 0.5 | 0.3 | 0.6 | 0.4 | 0.3 | 0.2 | 0.5 | 0.5 | 0.4 | 0.4 | 0.2 | 0.2 | Binding of serum SARS-green to linear peptides of protein X1 of SARS-CoV Urbani [1]: 0.0; Binding of serum SARS-green to looped/cyclic peptide (PEPSCAN-ELISA) [1]: 0.2; Binding of serum SARS-yellow to linear peptides of protein X1 of SARS-CoV Urbani [1]: 0.3; Binding of serum SARS-yellow to looped/cyclic peptide (PEPSCAN-ELISA) [1]: 0.4 |
| LLLLFVTIYSHLLLV | 0.6 | 0.5 | 0.6 | 0.5 | 0.1 | 0.5 | 0.7 | 0.5 | 0.5 | 0.3 | 0.8 | 0.5 | 0.4 | 0.3 | 0.5 | 0.6 | 0.4 | 0.6 | 0.2 | 0.2 | Binding of serum SARS-green to linear peptides of protein X1 of SARS-CoV Urbani [1]: 0.3; Binding of serum SARS-green to looped/cyclic peptide (PEPSCAN-ELISA) [1]: 0.2; Binding of serum SARS-yellow to linear peptides of protein X1 of SARS-CoV Urbani [1]: 0.3; Binding of serum SARS-yellow to looped/cyclic peptide (PEPSCAN-ELISA) [1]: 0.5 |
